Consider 1 compound from US10787413B2, “Derivatives of curcuminoids and use thereof as an anticancer agent” (CHINA MEDICAL UNIVERSITY, priority 2016, dated 2020).

Structures are written as SMILES.

In data set [1] the test system is MDA-MB-231 cells. Nature of the data set: Cell morphology, phase-contrast microscope. The conditions noted are these: 10 μM, 24 h. Format: cell-based, human. From the text: For morphological observations, cells were visualized and photographed using a phase-contrast microscope equipped with a digital camera (Leica Microsystems, Wetzlar, Germany)^21.
The nature of data set [2]: Stability of 21a in the culture media. As to conditions: media after 72 h treatment analyzed for curcumin. Format: physicochemical. As for the experimental part: Besides, the stability of 21a in the culture media was tested.
For data set [3], the system named is MDA-MB-231 cells. Nature of the data set: Apoptosis analysis (annexin V/propidium iodide). As to conditions: 5 μM, 24 and 48 h. Type of data set: cell-based, human. From the text: After treatments, cells were harvested and stained with annexin V and propidium iodide using the Annexin V: FITC Apoptosis Detection Kit II (BD Biosciences) and subjected to flow cytometry (FACScalibur; Becton-Dickinson, Mountain View, Calif., USA). The percentages of apoptotic cells were quantified with CellQuest software (Becton-Dickinson)^24.

A further data set has as its system MDA-MB-231 Xenograft. The experiment in a line: In vivo antitumor activity, MDA-MB-231 Xenograft nude mice model. As for the experimental part:
Female nu/nu mice (5 weeks old) were from National Laboratory Animal Center, Taipei, Taiwan. Mice were maintained under the procedures and guidelines from the Institutional Animal Care and Use Committee of the National Health Research Institutes, Taipei, Taiwan. All experiments were supervised under the Institutional Animal Care and Use Committee, China Medical University, Taichung, Taiwan. MDA-MB-231 breast cancer cells (5×10^6 cells per mouse) were suspended in 0.1 ml of Matrigel solution (50% (v/v) Matrigel in PBS) and inoculated into the mammary fat pads of the mice. […] Compounds was administered P.O. once every day for 32 days. Tumor size and mouse body weight were measured once every 4 days, and tumor volume (mm3) was calculated using the equation: length×(width)^2×0.5. At the end of experiments, mice were sacrificed and tumor nodules were dissected and weighed.

The test system of a further data set is MDA-MB-468. The experiment in a line: Cell viability, MDA-MB-468 breast cancer cells. Type of data set: cell-based. As to conditions: Homo sapiens; MDA-MB-468 (Triple negative), treated for 24 h. Here is the method: (§1) Cell viability was evaluated by measuring the reduction in MTT to yield blue formazan. Cells were cultured in 96-well plates, allowed to attach overnight, and then treated with compounds. After treatment, MTT solution (1 mg/ml) was added to each well, and plates were incubated for another 4 h. Medium were removed, blue formazan was dissolved in DMSO, and the absorbance was read at 570 nm^20.

A further data set concerns MDA-MB-157. The experiment in a line: Cell viability, MDA-MB-157 breast cancer cells. Format: cell-based. As to conditions: Homo sapiens; MDA-MB-157 (Triple negative), treated for 24 h. Here is the method:
as §1

`COc1cc(/C=C/C(=O)/C=C(O)/C=C/c2ccc(OC(=O)C(C)(CO)CO)c(OC)c2)ccc1OC(=O)C(C)(CO)CO` [Compound 21a, ((1E,3Z,6E)-3-Hydroxy-5-oxohepta-1,3,6-triene-1,7-diyl)bis(2-methoxy-4,1-phenylene) bis(3-hydroxy-2-(hydroxymethyl)-2-methylpropenoate)]: the cell morphology result with MDA-MB-231 cells [1] was “caused breast cancer cell apoptosis and autophagy”. Further, the “stability in the culture media” value in data set [2] is on record as “stable”. The “population of annexin V-positive cells” value with MDA-MB-231 cells [3] is listed as “significantly increased”. Moreover, in the data set on MDA-MB-231 Xenograft (MDA-MB-231 Xenograft nude mice model), the “antitumor activity, fold more potent than curcumin” value amounted to 10 fold. Moreover, the antitumor activity entry in the data set on MDA-MB-231 Xenograft (PO 5 mg/kg/day) is given as “significant antitumor activity”. In addition, the inhibitory efficacy entry with MDA-MB-231 Xenograft (PO 10 mg/kg/day) was “equivalent to 100 mg/kg/day of curcumin”. The “tumor weight lighter than that of the control group” value in the data set with MDA-MB-231 Xenograft (PO 50 mg/kg/day) is 60%. Besides, the “inhibition of MDA-MB-231 tumor growth” value with MDA-MB-231 Xenograft (PO 5, 10, 25 and 50 mg/kg/day) is “dose- and time-dependent inhibition”. Moreover, the “body weight, behavior change and blood chemistry (serology detection)” value with MDA-MB-231 Xenograft (treated vs untreated control group during antitumor evaluation) is given as “no significant difference”. Also, the IC50 – broadly, the concentration that inhibits the measured activity by half – with MDA-MB-468 turned out to be 6.13 ± 0.51 µM; with MDA-MB-157, 9.23 ± 0.11 µM.
